The source of these data is US7868026B2, “Therapeutic compounds” (Pfizer Inc., priority 2005, dated 2011).

What all share (assay type): biochemical
The target in assay [1] is T1, CYP3A4 (Homo sapiens, UniProt P08684). As to the kind of experiment: Determination of IC50 against CYP3A4 by measurement of inhibition of testosterone metabolism (human liver microsomes, 6-β-OH-testosterone by LC-MS/MS). The arrangement: 0.1 mg/mL human liver microsomes. The following applies: read-out: IC50 (Testo.). In a few lines: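 Human liver microsomes (0.1 mg/mL) incubated with 25 μM testosterone and 1 mM NADPH in 100 mM potassium phosphate, pH 7.4, for eight minutes. 6-β-OH-testosterone measured by LC-MS/MS in MRM mode against an internal standard and quantified from a metabolite standard curve.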
T1 sequence (P08684 whole entry): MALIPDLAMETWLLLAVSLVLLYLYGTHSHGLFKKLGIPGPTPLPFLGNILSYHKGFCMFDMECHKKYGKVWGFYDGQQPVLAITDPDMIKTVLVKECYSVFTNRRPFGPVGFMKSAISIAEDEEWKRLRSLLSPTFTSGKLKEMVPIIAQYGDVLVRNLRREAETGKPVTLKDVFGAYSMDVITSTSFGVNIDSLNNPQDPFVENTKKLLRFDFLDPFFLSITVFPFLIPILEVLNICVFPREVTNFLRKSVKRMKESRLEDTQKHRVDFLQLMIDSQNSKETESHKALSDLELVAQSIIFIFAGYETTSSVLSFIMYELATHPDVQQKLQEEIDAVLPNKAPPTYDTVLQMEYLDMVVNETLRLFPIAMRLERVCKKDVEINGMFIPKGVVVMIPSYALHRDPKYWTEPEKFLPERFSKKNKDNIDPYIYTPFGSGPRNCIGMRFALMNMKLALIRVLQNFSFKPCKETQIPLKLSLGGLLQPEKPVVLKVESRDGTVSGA

In assay [2] the target is T1, CYP3A4. The assay can be described thus: Determination of compound Kiapp against recombinant CYP3A4 enzyme (BFC fluorescent substrate). A digest of the protocol:
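Recombinant CYP3A4 (5.5 or 8 nM, with or without b5 depending on source) pre-incubated with inhibitor ≥30 min at room temperature in 100 mM sodium phosphate pH 7.0, 5 mM TCEP, 2% DMF. Reaction started with 200 uM NADPH and 5 uM BFC; initial fluorescence rates over 5 min fitted to Morrison tight-binding (non-partial) or Szedlacsek (partial) equations for Kiapp.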

The target in assay [3] is T1, CYP3A4. The assay can be described thus: Determination of IC50 against CYP3A4 by measurement of inhibition of midazolam metabolism (human liver microsomes, 1-hydroxymidazolam by LC-MS/MS). The arrangement: 0.1 mg/mL human liver microsomes. To be noted: 2 μM midazolam, 0.1 mg/mL human liver microsomes. A digest of the protocol: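 Human liver microsomes (0.1 mg/mL) incubated 8 min with 2 μM midazolam and 1 mM NADPH in 100 mM potassium phosphate, pH 7.4. 1-Hydroxymidazolam quantified by LC-MS/MS (MRM) as peak area ratio to internal standard against a metabolite standard curve.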

[4] abbreviates: Baculo. enzyme preparation, read-out: Kiapp (BFC, Baculo.).
Where [5] appears, read: Super. enzyme preparation, read-out: Kiapp (BFC, Super.).

Each structure is given as a SMILES string. Where two headings read alike, the source gives them in different places. A value given as a limit tells only on which side of the number the result lay.

As for `COc1cncc(NS(=O)(=O)c2ccccc2C(=O)NCc2ccc(F)c(F)c2)c1` [Example 368, N-(3,4-difluorobenzyl)-2-{[(5-methoxypyridin-3-yl)amino]sulfonyl}benzamide], the IC50 on CYP3A4 [1] is 18 nM; at CYP3A4 [3] it was 6 nM. In addition, the Ki at CYP3A4 [2] (setting [4]) was 7.6 nM; at CYP3A4 [2] (setting [5]), 1.1 nM.
With `O=C(c1ccccc1S(=O)(=O)Nc1cccnc1)N1CCc2ccccc2C1` [Example 83, 2-(3,4-dihydroisoquinolin-2(1H)-ylcarbonyl)-N-pyridin-3-ylbenzenesulfonamide], the values for the IC50 on CYP3A4 [1] and on CYP3A4 [3] were 28 nM and 35 nM, respectively. In addition, the results for the Ki at CYP3A4 [2] (setting [4]) and at CYP3A4 [2] (setting [5]) were 127 nM and 12.8 nM, respectively.
Consider `Cc1cncc(NS(=O)(=O)c2ccccc2C(=O)N(C)CCC(C)C)c1` [Example 348, N-methyl-N-(3-methylbutyl)-2-{[(5-methylpyridin-3-yl)amino]sulfonyl}benzamide], for which the IC50 on CYP3A4 [1] is 12 nM; at CYP3A4 [3], 7 nM. Besides, the values for the Ki at CYP3A4 [2] (setting [4]) and on CYP3A4 [2] (setting [5]) were 30.8 nM and 4.7 nM, respectively.
Consider `CCCN(CC)C(=O)c1ccccc1S(=O)(=O)Nc1cncc(OC)c1` [Example 195, N-ethyl-2-{[(5-methoxypyridin-3-yl)amino]sulfonyl}-N-propylbenzamide], for which the IC50 worked out at 32 nM at CYP3A4 [1] and 15 nM on CYP3A4 [3]. Further, the Ki on CYP3A4 [2] (setting [4]) came to 70.8 nM; on CYP3A4 [2] (setting [5]), 35.6 nM.
Turning to `CCCN(C)C(=O)c1ccccc1S(=O)(=O)Nc1cncc(OC)c1` [Example 245, 2-{[(5-methoxypyridin-3-yl)amino]sulfonyl}-N-methyl-N-propylbenzamide], the IC50 is 63 nM at CYP3A4 [1] and 29 nM at CYP3A4 [3]. In addition, the Ki at CYP3A4 [2] (setting [4]) came to 164 nM; on CYP3A4 [2] (setting [5]), 18.7 nM.
On to `CCCCCN(C)C(=O)c1ccccc1S(=O)(=O)Nc1cccnc1` [Example 47, N-methyl-N-pentyl-2-[(pyridin-3-ylamino)sulfonyl]benzamide], for which the IC50 on CYP3A4 [1] worked out at 30 nM; on CYP3A4 [3], 26 nM. Further, the Ki at CYP3A4 [2] (setting [4]) came to 332 nM.
Consider `Cc1ccccc1CNC(=O)c1ccccc1S(=O)(=O)Nc1cccnc1` [Example 74, N-(2-methylbenzyl)-2-[(pyridin-3-ylamino)sulfonyl]benzamide], for which the concentration for half-maximal inhibition (IC50) is below 3 nM on CYP3A4 [1] and 23 nM at CYP3A4 [3]. Further, the Ki was 174 nM at CYP3A4 [2] (setting [4]) and 4.8 nM at CYP3A4 [2] (setting [5]).
Consider `Cc1cncc(NS(=O)(=O)c2ccccc2C(=O)NCc2ccc(Cl)c(Cl)c2)c1` [Example 318, N-(3,4-dichlorobenzyl)-2-{[(5-methylpyridin-3-yl)amino]sulfonyl}benzamide], for which the concentration for half-maximal inhibition (IC50) was 165 nM at CYP3A4 [1] and 145 nM on CYP3A4 [3]. The Ki at CYP3A4 [2] (setting [4]) came to 9.9 nM; at CYP3A4 [2] (setting [5]), 1.9 nM.
For `CCOc1ccncc1NS(=O)(=O)c1ccccc1C(=O)NCc1ccc(F)c(C(F)(F)F)c1` [Example 250, 2-{[(4-ethoxypyridin-3-yl)amino]sulfonyl}-N-[4-fluoro-3-(trifluoromethyl)benzyl]benzamide], the values for the IC50 on CYP3A4 [1] and on CYP3A4 [3] were 7 nM and 10 nM, respectively. In addition, the Ki on CYP3A4 [2] (setting [4]) amounted to 4.3 nM; on CYP3A4 [2] (setting [5]), 3.14 nM.
In the case of `CNC(=O)c1ccc(CNC(=O)c2ccccc2S(=O)(=O)Nc2cccnc2)cc1` [Example 81, N-{4-[(methylamino)carbonyl]benzyl}-2-[(pyridin-3-ylamino)sulfonyl]benzamide], the half-inhibitory concentration (IC50) on CYP3A4 [1] is below 3 nM; at CYP3A4 [3] it was 501 nM. Moreover, the Ki at CYP3A4 [2] (setting [4]) was above 1000 nM; at CYP3A4 [2] (setting [5]), 276 nM.
Taken in the same sequence, the figures for `COc1cncc(NS(=O)(=O)c2ccccc2C(=O)NCc2ccc(F)c(Cl)c2)c1` [Example 262, N-(3-chloro-4-fluorobenzyl)-2-{[(5-methoxypyridin-3-yl)amino]sulfonyl}benzamide] were 7.5 nM, 5 nM, 10.2 nM and 1.63 nM.
As for `CN(C)CCNC(=O)c1ccccc1S(=O)(=O)Nc1cccnc1` [Example 37], the half-maximal inhibitory concentration (IC50) at CYP3A4 [1] and on CYP3A4 [3] was above 750 nM in each case. For the same compound, the Ki at CYP3A4 [2] (setting [4]) was above 1000 nM.
In the case of `COc1cncc(NS(=O)(=O)c2ccccc2C(=O)N2CCCC(C)(C)C2)c1` [Example 391, 2-[(3,3-dimethylpiperidin-1-yl)carbonyl]-N-(5-methoxypyridin-3-yl)benzenesulfonamide], the IC50 at CYP3A4 [1] amounted to 63 nM; on CYP3A4 [3], 27 nM. In addition, the Ki on CYP3A4 [2] (setting [4]) amounted to 317 nM; on CYP3A4 [2] (setting [5]) it was 6.26 nM.
For `COCCCNC(=O)c1ccccc1S(=O)(=O)Nc1cncc(OC)c1` [Example 236, N-(3-methoxypropyl)-2-{[(5-methoxypyridin-3-yl)amino]sulfonyl}benzamide], the values for the half-inhibitory concentration (IC50) on CYP3A4 [1] and on CYP3A4 [3] were 223 nM and 132 nM, respectively. Further, the Ki at CYP3A4 [2] (setting [4]) was above 1000 nM; at CYP3A4 [2] (setting [5]), 142 nM.
As for `Cc1cncc(NS(=O)(=O)c2ccccc2C(=O)NC(C)(C)C)c1` [Example 354, N-(tert-butyl)-2-{[(5-methyl-pyridin-3-yl)amino]sulfonyl} benzamide], the IC50 on CYP3A4 [1] was 61 nM; at CYP3A4 [3], 31 nM. Moreover, the Ki at CYP3A4 [2] (setting [4]) came out at 305 nM; at CYP3A4 [2] (setting [5]), 25.3 nM.
On to `CCCN(CC1CC1)C(=O)c1ccccc1S(=O)(=O)N(C)c1cccnc1` [Example 337, N-(cyclopropylmethyl)-2-{[methyl(pyridin-3-yl)amino]sulfonyl}-N-propylbenzamide], for which the IC50 on CYP3A4 [1] was 64 nM; on CYP3A4 [3] it was 88 nM. Moreover, the Ki at CYP3A4 [2] (setting [4]) came to 285 nM; on CYP3A4 [2] (setting [5]), 61.3 nM.
With `COc1cncc(NS(=O)(=O)c2ccccc2C(=O)N2CCCCC2)c1` [Example 16, N-(5-methoxypyridin-3-yl)-2-(piperidin-1-ylcarbonyl)benzenesulfonamide], the 50% inhibitory concentration (IC50) at CYP3A4 [1] turned out to be 117 nM; at CYP3A4 [3], 65 nM. In addition, on CYP3A4 [2] (setting [4]), the Ki was found to be 433 nM.
Regarding `COc1cncc(NS(=O)(=O)c2ccccc2C(=O)N[C@H](CO)CC2CCCCC2)c1` [Example 190, N-[(1S)-2-cyclohexyl-1-(hydroxymethyl)ethyl]-2-{[(5-methoxypyridin-3-yl)amino]sulfonyl}benzamide], the results for the half-inhibitory concentration (IC50) at CYP3A4 [1] and at CYP3A4 [3] were 16 nM and 7 nM, respectively. The Ki was 16.9 nM at CYP3A4 [2] (setting [4]) and 3.4 nM on CYP3A4 [2] (setting [5]).
Turning to `O=C(c1ccccc1S(=O)(=O)Nc1cccnc1)N1CCCC1` [Example 20, N-pyridin-3-yl-2-(pyrrolidin-1-ylcarbonyl)benzenesulfonamide], the IC50 on CYP3A4 [1] was found to be 445 nM; at CYP3A4 [3], 379 nM. On CYP3A4 [2] (setting [4]), the Ki was above 1000 nM.
Take `CC(C)CCN(C)C(=O)c1ccccc1S(=O)(=O)Nc1cccnc1` [Example 371, N-methyl-N-(3-methylbutyl)-2-[(pyridin-3-ylamino)sulfonyl]benzamide]: the IC50 amounted to 10 nM on CYP3A4 [1] and 5 nM at CYP3A4 [3]. Also, the Ki at CYP3A4 [2] (setting [4]) amounted to 248 nM; at CYP3A4 [2] (setting [5]), 58.8 nM.
Consider `COc1cncc(NS(=O)(=O)c2ccccc2C(=O)NCc2cccc(Cl)c2)c1` [Example 192, N-(3-chlorobenzyl)-2-{[(5-methoxypyridin-3-yl)amino]sulfonyl}benzamide], for which the 50% inhibitory concentration (IC50) at CYP3A4 [1] and at CYP3A4 [3] was 7 nM in each case. Moreover, the Ki amounted to 23.7 nM at CYP3A4 [2] (setting [4]) and 2.7 nM on CYP3A4 [2] (setting [5]).
In the case of `COc1cncc(NS(=O)(=O)c2ccccc2C(=O)N2CCOCC2)c1` [Example 367, N-(5-methoxypyridin-3-yl)-2-(morpholin-4-ylcarbonyl)benzenesulfonamide], the figures for the IC50 on CYP3A4 [1] and at CYP3A4 [3] were above 750 nM and 317 nM, respectively. The results for the Ki at CYP3A4 [2] (setting [4]) and at CYP3A4 [2] (setting [5]) were 570 nM and 148 nM, respectively.
The matching figures for `CCOc1cncc(NS(=O)(=O)c2ccccc2C(=O)NC(C)C2CC2)c1` (centres unmarked) [Example 299, N-(1-cyclopropylethyl)-2-{[(5-ethoxypyridin-3-yl)amino]sulfonyl}benzamide]: 53 nM, 26 nM, 56.5 nM and 20.6 nM.
The matching figures for `COc1ccncc1NS(=O)(=O)c1ccccc1C(=O)NCc1ccc(F)c(C(F)(F)F)c1` [Example 255, N-[4-fluoro-3-(trifluoromethyl)benzyl]-2-{[(4-methoxypyridin-3-yl)amino]sulfonyl}benzamide]: 9 nM, 7 nM, 22.7 nM and 4.06 nM.
`COc1cncc(NS(=O)(=O)c2ccccc2C(=O)NCC2(O)C3CC4CC(C3)CC2C4)c1` (centres unmarked) [Example 188, N-[(2-hydroxy-2-adamantyl)methyl]-2-{[(5-methoxypyridin-3-yl)amino]sulfonyl}benzamide]: the results for the IC50 on CYP3A4 [1] and at CYP3A4 [3] were 12 nM and 8 nM, respectively. Also, the Ki at CYP3A4 [2] (setting [4]) is 36.4 nM; on CYP3A4 [2] (setting [5]), 3.4 nM.
On to `Cc1cncc(NS(=O)(=O)c2ccccc2C(=O)N(C)Cc2ccc(F)c(F)c2)c1` [Example 286, N-(3,4-difluorobenzyl)-N-methyl-2-{[(5-methylpyridin-3-yl)amino]sulfonyl}benzamide], for which the values for the 50% inhibitory concentration (IC50) at CYP3A4 [1] and on CYP3A4 [3] were 9.5 nM and 7.67 nM, respectively. Moreover, the Ki is 27.2 nM at CYP3A4 [2] (setting [4]) and 4.06 nM on CYP3A4 [2] (setting [5]).
`COc1cncc(NS(=O)(=O)c2ccccc2C(=O)NCc2ccc(Cl)cc2C)c1` [Example 216]: the half-maximal inhibitory concentration (IC50) at CYP3A4 [1] is 7 nM; at CYP3A4 [3] it was 5 nM. The Ki on CYP3A4 [2] (setting [4]) worked out at 6.9 nM; at CYP3A4 [2] (setting [5]) it was 3.5 nM.
